Experimental data: US4920103A, “Modifications of mycinose and 3-O-demethylmycinose in tylosin-type macrolides” (Eli Lilly and Company, priority 1986, dated 1990)
Converted amounts (≈) assume the structure as drawn. “And” between values parts separate entries of the source, which are not always exact repeats. Identical values can stand only once. Like-named read-outs stand apart in the source and are kept apart here.

How the values were obtained:
[1] = system: Staphylococcus aureus X400; assay: MIC, standard agar-dilution assay, S. aureus X400; format: cell-based
Protocol: (§1) The MIC's in Table II were determined by standard agar-dilution assays. The MIC's in Table III were obtained using conventional broth-dilution microtiter tests.

[2] = system: Staphylococcus epidermidis 222; assay: MIC, standard agar-dilution assay, S. epidermidis 222; format: cell-based
Protocol: as §1

[3] = system: Pseudomonas aeruginosa X239; assay: MIC, standard agar-dilution assay, P. aeruginosa X239; format: cell-based; settings: agar-dilution, read-out: MIC
Protocol: as §1

[4] = system: Haemophilus influenzae C.L.; assay: MIC, standard agar-dilution assay, H. influenzae C.L.; format: cell-based
Protocol: as §1

[5] = system: Staphylococcus aureus S13E; assay: MIC, standard agar-dilution assay, S. aureus S13E; format: cell-based
Protocol: as §1

[6] = system: Streptococcus pyogenes C203; assay: Protection of mice experimentally infected with Streptococcus pyogenes C203; format: in vivo; settings: doses given 1 and 4 hours postinfection
Protocol: The formula 1 compounds have shown in vivo antimicrobial activity against experimentally-induced infections in laboratory animals. When two doses of test compound were administered to mice experimentally infected with Streptococcus pyogenes C203, the activity observed was measured as an ED50 value [effective dose in mg/kg to protect 50% of the test animals: see Warren Wick, et al., J. Bacteriol. 81, 233-235 (1961)].
^a mg/kg × 2; doses given 1 and 4 hours postinfection

[7] = system: Staphylococcus aureus V41; assay: MIC, standard agar-dilution assay, S. aureus V41; format: cell-based
Protocol: as §1

[8] = system: Haemophilus influenzae 76; assay: MIC, standard agar-dilution assay, H. influenzae 76; format: cell-based
Protocol: as §1

[9] = system: Streptococcus pyogenes C203; assay: MIC, standard agar-dilution assay, S. pyogenes C203; format: cell-based
Protocol: as §1

[10] = system: Streptococcus Group D X66; assay: MIC, standard agar-dilution assay, Streptococcus Group D X66; format: cell-based
Protocol: as §1

Escherichia coli EC14 = assay: MIC, standard agar-dilution assay, E. coli EC14; format: cell-based; settings: agar-dilution, read-out: MIC
Protocol: as §1

[11] = system: Staphylococcus aureus X1.1; assay: MIC, standard agar-dilution assay, S. aureus X1.1; format: cell-based
Protocol: as §1

[12] = system: Streptococcus pneumoniae Park I; assay: MIC, standard agar-dilution assay, S. pneumoniae Park I; format: cell-based
Protocol: as §1

[13] = system: Streptococcus Group D 2041; assay: MIC, standard agar-dilution assay, Streptococcus Group D 2041; format: cell-based
Protocol: as §1

[14] = system: Staphylococcus epidermidis EPI1; assay: MIC, standard agar-dilution assay, S. epidermidis EPI1; format: cell-based
Protocol: as §1

[15] = system: Klebsiella pneumoniae X68; assay: MIC, standard agar-dilution assay, K. pneumoniae X68; format: cell-based; settings: agar-dilution, read-out: MIC
Protocol: as §1

[16] = system: Mycoplasma gallisepticum 36H; assay: MIC, broth-dilution microtiter test, M. gallisepticum 36H; format: cell-based; settings: Mycoplasmoides gallisepticum
Protocol: as §1

[17] = system: Pasteurella multocida 40G; assay: MIC, broth-dilution microtiter test, P. multocida 40G; format: cell-based
Protocol: as §1

[18] = system: Mycoplasma hyopneumoniae S5972; assay: MIC, broth-dilution microtiter test, M. hyopneumoniae S5972; format: cell-based; settings: broth-dilution microtiter
Protocol: as §1

[19] = system: Pasteurella multocida 17E; assay: MIC, broth-dilution microtiter test, P. multocida 17E; format: cell-based
Protocol: as §1

[20] = system: Pasteurella multocida 22A; assay: MIC, broth-dilution microtiter test, P. multocida 22A; format: cell-based; settings: broth-dilution microtiter, read-out: MIC
Protocol: as §1

Streptococcus sp. 19F = assay: MIC, broth-dilution microtiter test, Streptococcus sp. 19F; format: cell-based
Protocol: as §1

[21] = system: Bordetella bronchiseptica; assay: MIC, broth-dilution microtiter test, B. bronchiseptica; format: cell-based; settings: broth-dilution microtiter, read-out: MIC
Protocol: as §1

[22] = system: Pasteurella hemolytica 22C; assay: MIC, broth-dilution microtiter test, P. hemolytica 22C; format: cell-based; settings: broth-dilution microtiter, read-out: MIC
Protocol: as §1

[23] = system: Pasteurella multocida 60A; assay: MIC, broth-dilution microtiter test, P. multocida 60A; format: cell-based; settings: broth-dilution microtiter, avian isolate, read-out: MIC
Protocol: as §1

[24] = system: Pasteurella hemolytica 23C; assay: MIC, broth-dilution microtiter test, P. hemolytica 23C; format: cell-based; settings: broth-dilution microtiter, read-out: MIC
Protocol: as §1

[25] = system: Mycoplasma gallisepticum 29C; assay: MIC, broth-dilution microtiter test, M. gallisepticum 29C; format: cell-based; settings: Mycoplasmoides gallisepticum
Protocol: as §1

Staphylococcus aureus = assay: MIC, broth-dilution microtiter test, S. aureus; format: cell-based
Protocol: as §1

[26] = system: Pasteurella hemolytica 41D; assay: MIC, broth-dilution microtiter test, P. hemolytica 41D; format: cell-based; settings: broth-dilution microtiter, read-out: MIC
Protocol: as §1

[27] = system: Pasteurella multocida 68C; assay: MIC, broth-dilution microtiter test, P. multocida 68C; format: cell-based
Protocol: as §1

[28] = system: Mycoplasma gallisepticum 15E; assay: MIC, broth-dilution microtiter test, M. gallisepticum 15E; format: cell-based; settings: Mycoplasmoides gallisepticum, broth-dilution microtiter, read-out: MIC
Protocol: as §1

Mycoplasma synoviae 40A = assay: MIC, broth-dilution microtiter test, M. synoviae 40A; format: cell-based; settings: broth-dilution microtiter
Protocol: as §1

Mycoplasma hyorhinis 29E = assay: MIC, broth-dilution microtiter test, M. hyorhinis 29E; format: cell-based; settings: broth-dilution microtiter
Protocol: as §1

[29] = Streptococcus pyogenes, C203, oral, read-out: ED50
[30] = Streptococcus pyogenes, C203, sc, subcutaneous, read-out: ED50
[31] = agar-dilution, ampicillin-sensitive strain, read-out: MIC
[32] = agar-dilution, ampicillin-resistant strain, read-out: MIC

Row | Compound | MIC [1] [µg/mL] | MIC [2] [µg/mL] | MIC [3] [µg/mL] | MIC [5] [µg/mL] | ED50 [6, 29] [mg/kg] | ED50 [6, 30] [mg/kg] | MIC ([7]; Staphylococcus aureus, V41) [µg/mL] | MIC ([9]; Streptococcus pyogenes, C203) [µg/mL] | MIC [10] [µg/mL] | MIC (Escherichia coli EC14) [µg/mL] | MIC [11] [µg/mL] | MIC ([12]; Streptococcus pneumoniae) [µg/mL] | MIC ([13]; GROUPD2041) [µg/mL] | MIC [14] [µg/mL] | MIC [15] [µg/mL] | MIC [4, 31] [µg/mL] | MIC [8, 32] [µg/mL] | further results
1 | CCC1OC(=O)CC(O)C(C)C(OC2OC(C)C(O)C(N(C)C)C2O)C(CCOc2ccccc2)CC(C)C(=O)C=CC(C)=CC1COC1OC(C)C(=O)C(OC)C1OC (stereo not drawn) [Compound 2, 4"-Oxo-20-DH-20-O-phenyl-desmycosin] | 0.5 (≈ 0.59 µM) | 0.25 (≈ 0.295 µM) | > 128 | 0.5 (≈ 0.59 µM) | 85.6 | > 10 | 0.5 (≈ 0.59 µM) | 2 (≈ 2.36 µM) | 4 (≈ 4.72 µM) | > 128 | 0.5 (≈ 0.59 µM) | 4 (≈ 4.72 µM) | 8 (≈ 9.43 µM) | 1 (≈ 1.18 µM) | > 128 |  |  | MIC [4]: 64 µg/mL (≈ 75.5 µM); MIC [8]: 64 µg/mL (≈ 75.5 µM)
2 | CCC1OC(=O)CC(O)C(C)C(OC2OC(C)C(O)C(N(C)C)C2O)C(CCOc2ccccc2)CC(C)C(=O)C=CC(C)=CC1COC1OC(C)C(=NO)C(OC)C1OC (stereo not drawn) [Compound 4, 4"-O-Hydroxyimino-20-DH-20-O-phenyl-desmycosin] | 1 (≈ 1.16 µM) | 0.5 (≈ 0.579 µM) | > 128 | 1 (≈ 1.16 µM) | 39.6 | > 10 | 1 (≈ 1.16 µM) | 2 (≈ 2.32 µM) | 2 (≈ 2.32 µM) | > 128 | 0.5 (≈ 0.579 µM) | 2 (≈ 2.32 µM) | 4 (≈ 4.63 µM) | 1 (≈ 1.16 µM) | > 128 | > 128 | > 128 | MIC [16]: 50 µg/mL (≈ 57.9 µM); MIC [17]: 50 µg/mL (≈ 57.9 µM); MIC ([18]; Mesomycoplasma hyopneumoniae, S5972, read-out: MIC): > 50 µg/mL; MIC ([19]; Pasteurella multocida, 17E): 50 µg/mL (≈ 57.9 µM); MIC [20]: > 50 µg/mL; MIC (Streptococcus sp. 19F; Streptococcus, SP.19F): 0.78 µg/mL (≈ 0.904 µM); MIC [21]: > 50 µg/mL; MIC [22]: > 50 µg/mL; MIC [23]: > 50 µg/mL; MIC [24]: > 50 µg/mL; MIC [25]: 1.56 µg/mL (≈ 1.81 µM); MIC (Staphylococcus aureus): 1.56 µg/mL (≈ 1.81 µM); MIC [26]: > 50 µg/mL; MIC [27]: 50 µg/mL (≈ 57.9 µM); MIC [28]: 25 µg/mL (≈ 29 µM)
3 | CCC1OC(=O)CC(O)C(C)C(OC2OC(C)C(O)C(N(C)C)C2O)C(CCOc2ccccc2)CC(C)C(=O)C=CC(C)=CC1COC1OC(C)C(OC)C(OC)C1OC (stereo not drawn) [Compound 13, 4"-O-Methyl-20-DH-20-O-phenyl-desmycosin] |  |  |  |  |  |  |  |  |  |  |  |  |  |  |  |  |  | MIC (Mycoplasma synoviae 40A): 6.25 µg/mL (≈ 7.23 µM); MIC [18]: > 25 µg/mL; MIC ([19]; broth-dilution microtiter, bovine isolate): -- (not active at 50 mcg/mL); MIC (Mycoplasma hyorhinis 29E): 25 µg/mL (≈ 28.9 µM); MIC (Streptococcus sp. 19F; broth-dilution microtiter): 6.25 µg/mL (≈ 7.23 µM); ED50 ([6]; oral): 18.8 mg/kg × 2 and 22.4 mg/kg × 2; ED50 ([6]; subcutaneous): > 10 mg/kg × 2; MIC ([7]; agar-dilution, penicillin-resistant strain): 2 µg/mL (≈ 2.31 µM); MIC ([9]; agar-dilution): 4 µg/mL (≈ 4.63 µM); MIC ([10]; agar-dilution): 16 µg/mL (≈ 18.5 µM); MIC ([12]; agar-dilution): 4 µg/mL (≈ 4.63 µM); MIC ([13]; agar-dilution): 16 µg/mL (≈ 18.5 µM)
4 | CCC1OC(=O)CC(O)C(C)C(OC2OC(C)C(O)C(N(C)C)C2O)C(CCOc2ccccc2)CC(C)C(=O)C=CC(C)=CC1COC1OC(C)C(OS(C)(=O)=O)C(OC)C1OC (stereo not drawn) [Compound 15, 4"-O-Methanesulfonyl-20-DH-20-O-Phenyl-desmycosin] | 2 (≈ 2.15 µM) | 1 (≈ 1.08 µM) | > 128 | 2 (≈ 2.15 µM) | 29.3 | > 10 | 2 (≈ 2.15 µM) | 4 (≈ 4.31 µM) | 16 (≈ 17.2 µM) | > 128 | 2 (≈ 2.15 µM) |  | 32 (≈ 34.5 µM) | 2 (≈ 2.15 µM) | > 128 | 128 (≈ 138 µM) | 128 (≈ 138 µM) | MIC ([12]; Streptococcus pneumoniae, agar-dilution, read-out: MIC): 8 µg/mL (≈ 8.62 µM)
